We go through 29 compounds from PubChem BioAssay AID977622 (Broad Institute, 2014).

The test system of experiment [1] is E. coli WT ribosome GFP fluorescence, mixed culture, 24 h. Briefly: growth inhibition of wild-type GFP E. coli, dose response, h38 mutant RFP, cherry-pick (AID 977622).
In experiment [2] the test system is E. coli h38 humanized mutant ribosome RFP fluorescence, mixed culture, 24 h. The description is as above. Particulars: measured here: h38 humanized mutant RFP strain.
The mark [3] stands for this setting: E. coli mixed culture, 24 h, measured here: total growth OD600.

Each structure is given as a SMILES string. Results filed as inconclusive are left out. Active and inactive are the calls of the source.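 Rule for the calls: active = Green signal of the normal strain falls at least twice as much as red signal of the resistant mutant, with overall culture growth loss under a set limit; inconclusive = no clear call, values can overlap the other calls; inactive = the rest.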

As to `CCC1(CC)NC(=O)N(CC(=O)N2N=C(c3ccc(Cl)cc3)CC2c2ccco2)C1=O` (stereo unspecified), the AC50 in experiment [1] (setting [3]) and in experiment [2] was above 100 µM throughout.
As to `CCCc1c(C(=O)Nc2ccc(OC)cc2)cnn1-c1ccccc1`, the figures for the AC50 in experiment [1] and in experiment [2] were > 100 µM (inactive) and 9.68 µM, respectively.
Consider `Cc1cccc(Nc2nc(-c3ccc(F)cc3)cs2)n1`, for which the AC50 in experiment [1] was > 100 µM (inactive); in experiment [1] (setting [3]) it was above 100 µM; in experiment [2] it was above 100 µM.
On to `O=C(Nc1cccc(Cl)c1)c1ccc(S(=O)(=O)NCC2CCCO2)cc1` (stereo unspecified), for which the AC50 in experiment [1] is > 100 µM (inactive); in experiment [1] (setting [3]), 52.5 µM; in experiment [2], 43.4 µM.
On to `Cc1onc(-c2ccccc2Cl)c1C(=O)N1CCN(Cc2ccc3c(c2)OCO3)CC1`, for which the AC50 in experiment [1] (setting [3]) and in experiment [2] was above 100 µM throughout.
On to `NS(=O)(=O)c1cccc(NC(=O)CSc2nc3ccccc3n2-c2ccccc2)c1`, for which the AC50 was > 100 µM (inactive) in experiment [1], 36 µM in experiment [1] (setting [3]) and above 100 µM in experiment [2].
Take `C=CCn1c(C)cc(C(=O)CSc2nnc(C3CC3)n2C2CC2)c1C`: the AC50 in experiment [1] (setting [3]) and in experiment [2] was above 100 µM each time.
`Nc1c(Cl)cc(C2=NCCn3nc4ccccc4c32)cc1Cl`: the values for the AC50 in experiment [1], in experiment [1] (setting [3]) and in experiment [2] were > 100 µM (inactive), 41.6 µM and 50.5 µM, respectively.
Turning to `COc1ccccc1NC(=O)COC(=O)Cc1c[nH]c2ccccc12`, the AC50 in experiment [1] (setting [3]) and in experiment [2] was above 100 µM throughout.
For the compound `COc1ccc(OC)c(C(=O)COC(=O)c2ccc([N+](=O)[O-])o2)c1`, the AC50 in experiment [1] was > 100 µM (inactive); in experiment [1] (setting [3]) it was above 100 µM; in experiment [2], above 100 µM.
`COc1ccc(NC(=O)CCS(=O)(=O)c2ccccc2Cl)cc1S(=O)(=O)Nc1ccc(Cl)cc1`: the results for the AC50 in experiment [1], in experiment [1] (setting [3]) and in experiment [2] were > 100 µM (inactive), above 100 µM and above 100 µM, respectively.
Turning to `O=C(Nc1ccncc1)c1ccc(S(=O)(=O)Nc2ccccc2)cc1`, the AC50 in experiment [1] was > 100 µM (inactive); in experiment [2], above 100 µM.
`CC(C)(C)S(=O)(=O)Cc1nc(-c2ccc(Cl)c(Cl)c2)cs1`: the AC50 is > 100 µM (inactive) in experiment [1], above 100 µM in experiment [1] (setting [3]) and above 100 µM in experiment [2].
Regarding `COc1ccc(OC)c(S(=O)(=O)Nc2cccc3ccc(O)cc23)c1`, the AC50 in experiment [1] was > 100 µM (inactive); in experiment [1] (setting [3]), above 100 µM; in experiment [2], above 100 µM.
As for `CS(=O)(=O)c1ccc(Cl)c(NC(=O)CSc2nncn2-c2ccccc2)c1`, the AC50 in experiment [1] is > 100 µM (inactive); in experiment [2], above 100 µM.
Regarding `Cc1nc([N+](=O)[O-])c(Br)n1CC(=O)c1ccc(F)cc1`, the AC50 in experiment [1] is > 100 µM (inactive); in experiment [2] it was 4.58 µM.
For `Cc1ccccc1-c1cc(C(=O)NCc2cccs2)n(CC2CC(c3cccnc3)=NO2)n1` (stereo unspecified), in that order: > 100 µM (inactive) and above 100 µM.
As to `C[C@@H]1CCCCO[C@H](CN(C)CC2CC2)[C@H](C)CN([C@@H](C)CO)C(=O)c2cc(NC(=O)Nc3cccc4ccccc34)ccc2O1`, the AC50 in experiment [1] is > 52 µM (inactive); in experiment [1] (setting [3]) it was 32.4 µM; in experiment [2] it was 43.2 µM.
As for `NC(=O)c1cccnc1Oc1ccc(Cl)cc1Cl`, the AC50 was > 100 µM (inactive) in experiment [1] and above 100 µM in experiment [2].
As to `CCc1cc2cc(OC)ccc2nc1SCC(=O)Nc1cc(OC)c(OC)cc1C(=O)O`, the AC50 was > 100 µM (inactive) in experiment [1], 36.3 µM in experiment [1] (setting [3]) and above 100 µM in experiment [2].
Take `CN(C)S(=O)(=O)N1CCN(c2ccccc2Cl)CC1`: the half-maximal activity concentration (AC50) in experiment [1] (setting [3]) and in experiment [2] was above 100 µM in each case.
In the case of `CCc1cc2c(nc1CC)CCCN2Cc1ccc(Br)cc1`, the AC50 is > 100 µM (inactive) in experiment [1] and above 100 µM in experiment [2].
As for `CCn1cc(Br)c(C(=O)Nc2ccc(C(=O)OC(C)C)cc2)n1`, the figures for the AC50 in experiment [1] and in experiment [2] were > 100 µM (inactive) and above 100 µM, respectively.
On to `COc1ccc2oc(C)c(C(=O)c3ccccc3)c2c1`, for which the AC50 in experiment [1] was > 100 µM (inactive); in experiment [1] (setting [3]) it was 48.5 µM; in experiment [2], above 100 µM.
In the case of `CC(C)n1nnnc1C1c2ccccc2C(=O)N1CCOc1ccccc1` (stereo unspecified), the values for the AC50 in experiment [1] (setting [3]) and in experiment [2] were above 100 µM and 3.86 µM, respectively.
As to `CCc1cccc(NC(=O)CN(C)S(=O)(=O)c2cccc3cccnc23)c1`, the AC50 in experiment [1] was > 100 µM (inactive); in experiment [2] it was above 100 µM.
With `C=C1c2cc3c(cc2NC(=S)N1Cc1ccccc1)OCO3`, the AC50 in experiment [1] (setting [3]) and in experiment [2] was above 100 µM each time.
Consider `COC(=O)c1c(-c2ccc(OC)cc2)sc2cc(OC)c(OC)cc12`, for which the AC50 in experiment [1] was > 100 µM (inactive); in experiment [1] (setting [3]), 45.8 µM; in experiment [2], above 100 µM.
In the case of `O=C(O)CSc1nnc(-c2ccc(Cl)cc2Cl)n1-c1ccc(Br)cc1`, the AC50 in experiment [1] is > 100 µM (inactive); in experiment [1] (setting [3]), above 100 µM; in experiment [2] it was above 100 µM.
